Source: patent US9127079B2, “Inhibitors of phosphatase and tensin homolog (PTEN) conjugates” (THE UNIVERSITY OF BRITISH COLUMBIA, priority 2009, dated 2015)

Experiments:
PTEN [1] = assay: Immunostaining of endogenous PTEN: nuclear translocation in cultured neurons with NMDA; format: cell-based, rat; conditions: peptide 10 uM, NMDA stimulation
Experimental: (§1) Dissociated cultures of rat cortical or hippocampal neurons were prepared from 18-d-old Sprague Dawley rat embryos as described previously (Mielke and Wang 2005). To obtain mixed cultures enriched with neurons, uridine (10 μM) and 5-Fluor-T-deoxyuridine (10 μM) were added to the culture medium at 3 d in vitro (DIV) and maintained for 48 h to inhibit non-neuronal cell proliferation before the cultures were returned to the normal culture medium. Mature neurons (12-14 DIV) were used for experiments.
In order to induce excitotoxicity, 12-14 DIV cultured neurons were washed and transferred to Mg2+-free extracellular solution (ECS) containing the following (in mM): 25 HEPES acid, 140 NaCl, 33 glucose, 5.4 KCl, and 1.3 CaCl2, with pH 7.35 and osmolarity 320-330 mOsm. ECS and subjected to NMDA-induced excitotoxicity (20 μM NMDA, 10 μM glycine, 60 min at room temperature) or any other experimental conditions as indicated in the texts. Cells were then washed twice with normal ECS, and returned to the original growth conditions until additional assay.

PTEN [2] = assay: Western blotting of nuclear fractions from cultured neurons: PTEN nuclear translocation; format: cell-based, rat; conditions: NMDA stimulation
Experimental: as §1
In order to induce excitotoxicity, 12-14 DIV cultured neurons were washed and transferred to Mg2+-free extracellular solution (ECS) containing the following (in mM): 25 HEPES acid, 140 NaCl, 33 glucose, 5.4 KCl, and 1.3 CaCl2, with pH 7.35 and osmolarity 320-330 mOsm. […]
For western blotting, 10 μg of the nuclear extract or 40 μg of total cell lysate (solubilized by 1% SDS, 1 mM EGTA, 1 mM EDTA, 1 mM DTT, 2 mM sodium orthovanadate, and protease inhibitors cocktail in PBS) from each treatment condition was separated with SDS-PAGE, transferred onto a polyvinylidene difluoride (PVDF) membrane, and probed with the relevant antibodies. […] Band intensities were quantified using NIH ImageJ™ software and normalized to the quantity of a nuclear marker or β-tubulin in each sample lane.

[3] = Infarct volume by MRI after cerebral ischemia (MCA/CCA ligation); format: in vivo, rat; conditions: for infarct volume assessed by MRI: seven days after cerebral ischemia; for Mean (infarct volume): given 6 hours after ischemia onset, n=8
Experimental: Adult male Sprague-Dawley rats (weight 200 g) were used in this study. All surgical procedures were performed using sterile/aseptic techniques in accordance with Institutional guidelines. Rats were anesthetized with chloral hydrate (0.4 g/kg IP) and subjected to cerebral ischemia. Ligation of the right middle cerebral artery (MCA) and bilateral common carotids arteries (CCAs) was performed by methods described previously (Shyu et al. 2005). The CCAs were clamped with non-traumatic arterial clips. The right MCA was ligated with a 10-0 nylone suture. After 90 min of ischemia, the suture on the MCA and the arterial clips on the CCAs were removed to allow reperfusion. Core body temperature was monitored with a thermistor probe (Hewlett-Packard™ Model 21090A probe, Hewlett-Packard Company™, Andover, Mass.), and maintained at 37° C. with a heating pad during anesthesia. After recovery from anesthesia, rat body temperature was maintained at 37° C. with a heat lamp. […]
MRI was performed on rats under anesthesia in an imaging system (R4, GE™) at 3.0 T. Brains were scanned in 6 to 8 coronal image slices, each 2 mm thick without any gaps. T2-weighted imaging (T2WI) pulse sequences were obtained with the use of a spin-echo technique (repetition time, 4000 ms; echo time, 105 ms) and were captured sequentially for each animal at day 7 after cerebral ischemia. To measure the infarction area in the right cortex, we subtracted the noninfarcted area in the right cortex from the total cortical area of the left hemisphere (Shyu et al. 2004). The area of infarct was drawn manually from slice to slice, and the volume was then calculated by internal volume analysis software (Voxtool™, General Electric™).

transplanted iPS-NPCs = assay: Survival of iPS-NPCs transplanted intracerebrally after focal cerebral ischemia in the rat (TUNEL); format: in vivo
From the text: iPS-MEF-Ng-20D-17 from Kyoto University, and Cell Bank of RIKEN BioResource Center of Japan (Okita K. et al. Nature (2007) 448(7151):313-17) was induced into iPS-NPCs using a multistage differentiation protocol with some modifications (Kumagai G. et al. PLoS ONE (2009) 4(11):e7706). In brief, the human iPS cells expanding on irradiated MEF feeder cells were passaged, and then transferred to nonadherent culture dishes where they readily formed spheroid embryoid bodies (EBs). Clusters of neuroepithelial-like cells could be isolated and propagated from EBs in the medium of DMEM-F12, N2 supplement (1%; Invitrogen), and 20 ng/mL FGF-2 (R&D Systems™, Germany).
Prior to transplantation, the iPS-NPSs were labeled using 1 μg/mL bis-benzimide (Hoechst™ 33342; Sigma™) for 1 hours at 37° C. as previously described (Shyu W C. et al. J Clin Invest (2008) 118(1):133-148). Labeled cells were then collected and washed in PBS three times. iPS-NPCs were counted using a cytometer to ensure an adequate cell number for transplantation. One week after brain ischemia, adult male Sprague-Dawley rats (weight >300 g) were anesthetized with chloral hydrate (0.4 g/kg, ip) and injected stereotaxically with approximately 1×10^6 cells in a 3-5 μL PBS suspension through a 26-gauge Hamilton syringe into 3 cortical areas adjacent to the right MCA, 3.0 to 5.0 mm below the dura. […]

KEIVSRNKRRYQED-YGRKKRRQRRR (KEIVSRNKRRYQEDYGRKKRRQRRR; PTEN K13 interference peptide conjugated to TAT protein transduction domain) [Peptide-K13]
PTEN nuclear translocation (endogenous PTEN immunostaining) (PTEN [1]): prevented PTEN nuclear translocation | PTEN nuclear translocation (western blotting of nuclear fractions) (PTEN [2]): prevents PTEN nuclear translocation | decrease in infarct volume as compared to the control ([3]; 1.0 mg/kg intravenous): greater than 50% | decrease in infarct volume as compared to the control ([3]; 10 mg/kg intravenous): greater than 50% | infarct volume assessed by MRI ([3]; i.v. 8.4 mg/kg given 2 hours after ischemia onset): significantly reduced | infarct volume assessed by MRI ([3]; i.v. 8.4 mg/kg given 6 hours after ischemia onset): significantly reduced | Mean (infarct volume) ([3]; intravenous 0.1 mg/kg): 160.900 | Mean (infarct volume) ([3]; intravenous 1.0 mg/kg): 72.850 | Mean (infarct volume) ([3]; intravenous 10 mg/kg): 63.700 | TUNEL positive transplanted iPS-NPCs (transplanted iPS-NPCs; 7 days after transplantation, vs saline-treated rats, n=6): significantly fewer | survival rate of transplanted iPS-NPCs (transplanted iPS-NPCs; intravenous 8.4 mg/kg once a day for 7 days following transplantation, ischemic rat): significantly increased
